Measured values from US20260049071A1, “PROTEIN TYROSINE KINASE INHIBITOR AND MEDICAL USE THEREOF” (BEYANG THERAPEUTICS CO., LTD., priority 2022, published 2026).

Assays:
KDR (VEGFR2) = KDR (VEGFR2) (Homo sapiens (Human), UniProt P35968); test: Kinase inhibition, Mobility Shift Assay (VEGFR2); format: biochemical
Protocol: (§1) This assay directly monitored the ability of compounds to inhibit kinase phosphorylation by measuring non-phosphorylated and phosphorylated substrates in kinase reactions by using Mobility Shift Assays/IMAP™ analysis.
(§2) Add the kinase and DTT to 1× kinase buffer to form a 2.5× kinase solution; transfer 10 μL of 2.5× kinase solution to a 384-well reaction plate and add 1× kinase buffer to negative control wells. Incubate the plate for 10 min at room temperature; add FAM-labeled peptides, MgCl2, ATP and other reagents to 1× kinase buffer to form a 2.5× substrate solution; transfer 10 μL of the above 2.5× substrate solution to the 384-well reaction plate; incubate the plate at 28° C. for different times, and add 25 μL of stop solution to the 384-well reaction plate to stop the reaction. Read the conversion ratio data on CaliperEZ Reader II. Convert conversion rates into inhibition ratio data.
(§3) “Min” indicates the readout of the control well without the addition of kinase; and “Max” indicates the readout of the control well with the addition of DMSO. Fit IC50 values with XLFit excel add-in version 5.4.0.8.
(§4) X indicates the log value of compound concentration, and Y indicates the inhibition ratio (% inhibition).

EGFR = EGFR (Homo sapiens (Human), UniProt P00533); test: Kinase inhibition, Mobility Shift Assay (EGFR); format: biochemical
Sequence of EGFR (P00533 25-1210): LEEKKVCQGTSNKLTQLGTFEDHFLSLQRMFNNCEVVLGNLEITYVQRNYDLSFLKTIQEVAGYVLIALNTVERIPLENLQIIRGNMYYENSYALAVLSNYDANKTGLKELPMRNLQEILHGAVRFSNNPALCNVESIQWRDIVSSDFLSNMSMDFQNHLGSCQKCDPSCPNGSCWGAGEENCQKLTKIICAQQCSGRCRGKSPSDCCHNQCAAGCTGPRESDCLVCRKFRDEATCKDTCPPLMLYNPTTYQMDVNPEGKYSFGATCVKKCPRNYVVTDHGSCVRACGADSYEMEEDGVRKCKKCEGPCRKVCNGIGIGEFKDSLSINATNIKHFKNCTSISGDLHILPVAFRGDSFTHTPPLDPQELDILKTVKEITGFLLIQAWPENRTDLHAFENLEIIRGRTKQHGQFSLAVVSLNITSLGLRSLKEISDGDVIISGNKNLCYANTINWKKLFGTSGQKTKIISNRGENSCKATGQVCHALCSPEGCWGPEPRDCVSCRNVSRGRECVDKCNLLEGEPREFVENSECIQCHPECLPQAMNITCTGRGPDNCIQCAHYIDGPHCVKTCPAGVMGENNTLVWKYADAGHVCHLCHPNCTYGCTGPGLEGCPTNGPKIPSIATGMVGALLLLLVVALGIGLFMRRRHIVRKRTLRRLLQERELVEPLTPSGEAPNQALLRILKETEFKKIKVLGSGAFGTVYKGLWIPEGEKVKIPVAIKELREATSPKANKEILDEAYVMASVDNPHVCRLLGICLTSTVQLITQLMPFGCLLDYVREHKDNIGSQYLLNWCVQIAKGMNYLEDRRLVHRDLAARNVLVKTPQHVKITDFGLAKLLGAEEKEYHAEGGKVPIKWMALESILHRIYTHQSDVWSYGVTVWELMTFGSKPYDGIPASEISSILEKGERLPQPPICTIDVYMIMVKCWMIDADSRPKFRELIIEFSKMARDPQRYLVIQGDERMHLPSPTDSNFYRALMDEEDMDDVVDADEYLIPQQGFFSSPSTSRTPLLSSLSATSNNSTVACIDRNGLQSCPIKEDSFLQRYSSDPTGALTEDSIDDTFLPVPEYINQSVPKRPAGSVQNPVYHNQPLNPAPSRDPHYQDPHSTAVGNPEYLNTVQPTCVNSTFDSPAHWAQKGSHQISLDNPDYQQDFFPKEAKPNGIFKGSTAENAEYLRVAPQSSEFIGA
Protocol: as §1, §2, §3, §4

Sequence of KDR (VEGFR2) (P35968 790-1356): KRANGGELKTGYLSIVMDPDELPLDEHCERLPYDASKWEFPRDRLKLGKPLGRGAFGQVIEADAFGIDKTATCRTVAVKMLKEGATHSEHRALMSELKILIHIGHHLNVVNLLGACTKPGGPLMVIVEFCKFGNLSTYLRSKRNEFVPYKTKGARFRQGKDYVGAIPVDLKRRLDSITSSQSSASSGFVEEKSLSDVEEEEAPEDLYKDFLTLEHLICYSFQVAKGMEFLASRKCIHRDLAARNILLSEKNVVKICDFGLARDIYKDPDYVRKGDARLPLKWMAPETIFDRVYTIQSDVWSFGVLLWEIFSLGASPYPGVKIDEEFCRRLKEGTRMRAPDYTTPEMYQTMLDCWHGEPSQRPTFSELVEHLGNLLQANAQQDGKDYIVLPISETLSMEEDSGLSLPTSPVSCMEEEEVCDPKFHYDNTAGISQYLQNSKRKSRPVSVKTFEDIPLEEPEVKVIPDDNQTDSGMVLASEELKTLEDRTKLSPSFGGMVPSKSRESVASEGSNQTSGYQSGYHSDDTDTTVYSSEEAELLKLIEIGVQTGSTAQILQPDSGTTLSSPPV

Structure (SMILES) | IC50 (KDR (VEGFR2)) | IC50 (EGFR)
O=C(NC1CC1)c1cccc(F)c1Sc1ccc2c(/C=C/c3ccn(CCN4CCCC4)n3)n[nH]c2c1 [Compound I-69] | 10 to 100 nM | 6000 to 60000 nM
CNC(=O)c1ccccc1Sc1ccc2c(/C=C/c3ccc(CN4CCCC4)cn3)n[nH]c2c1 [Compound I-74, N-methyl-2-({3-[(E)-2-{5-[(pyrrolidin-1-yl)methyl]pyridin-2-yl}vinyl]-1H-indazol-6-yl}thio)benzamide] | 1 to 10 nM | 6000 to 60000 nM
CCNC(=O)c1cccc(F)c1Sc1ccc2c(/C=C/c3ccc(CN4CCCC4)cn3)n[nH]c2c1 [Compound I-75, N-ethyl-3-fluoro-2-({3-[(E)-2-{5-[(pyrrolidin-1-yl)methyl]pyridin-2-yl}vinyl]-1H-indazol-6-yl}thio)benzamide] | 1 to 10 nM | 6000 to 60000 nM
CCN(CC)Cc1ccc(/C=C/c2n[nH]c3cc(Sc4cc(F)ccc4C(=O)NC)ccc23)nc1 [Compound I-92, 2-({3-[(E)-2-{5-[(diethylamino)methyl]pyridin-2-yl}vinyl]-1H-indazol-6-yl}thio)-4-fluoro-N-methylbenzamide] | 1 to 10 nM | 6000 to 60000 nM
CCNC(=O)c1ccc(F)cc1Sc1ccc2c(/C=C/c3cnn(CCCN4CCCC4)c3)n[nH]c2c1 [Compound I-103, N-ethyl-4-fluoro-2-({3-[(E)-2-{1-[3-(pyrrolidin-1-yl)propyl]-1H-pyrazol-4-yl}vinyl]-1H-indazol-6-yl}thio)benzamide] | ≤ 1 nM | 6000 to 60000 nM
O=C(NC1CC1)c1cccc(F)c1Sc1ccc2c(/C=C/c3cc(OCCN4CCCC4)ccn3)n[nH]c2c1 [Compound I-112, N-cyclopropyl-3-fluoro-2-({3-[(E)-2-{4-[2-(pyrrolidin-1-yl)ethoxy]pyridin-2-yl}vinyl]-1H-indazol-6-yl}thio)benzamide] | 10 to 100 nM | 6000 to 60000 nM
O=C(NC1CC1)c1cccc(F)c1Sc1ccc2c(/C=C/c3cccc(CCCN4CCCC4)n3)n[nH]c2c1 [Compound I-124] | 10 to 100 nM | 6000 to 60000 nM
O=C(NC1CC1)c1cccc(F)c1Sc1ccc2c(/C=C/c3cccc(CCN4CCCC4)n3)n[nH]c2c1 [Compound I-128, N-cyclopropyl-3-fluoro-2-({3-[(E)-2-{6-[2-(pyrrolidin-1-yl)ethyl]pyridin-2-yl}vinyl]-1H-indazol-6-yl}thio)benzamide] | 10 to 100 nM | > 60000 nM
CCNC(=O)c1cccc(F)c1Sc1ccc2c(/C=C/c3cccc(CCN4CCCC4)n3)n[nH]c2c1 [Compound I-129, N-ethyl-3-fluoro-2-({3-[(E)-2-{6-[2-(pyrrolidin-1-yl)ethyl]pyridin-2-yl}vinyl]-1H-indazol-6-yl}thio)benzamide] | 10 to 100 nM | > 60000 nM
O=C(NC1CC1)c1cc(F)ccc1Sc1ccc2c(/C=C/c3cccc(CCCN4CCCC4)n3)n[nH]c2c1 [Compound I-132, N-cyclopropyl-5-fluoro-2-({3-[(E)-2-{6-[3-(pyrrolidin-1-yl)propyl]pyridin-2-yl}vinyl]-1H-indazol-6-yl}thio)benzamide] | 1 to 10 nM | 6000 to 60000 nM
O=C(NC1CC1)c1cc(F)ccc1Sc1ccc2c(/C=C/c3cc(CCN4CCCC4)ccn3)n[nH]c2c1 [Compound I-135, N-cyclopropyl-5-fluoro-2-({3-[(E)-2-{4-[2-(pyrrolidin-1-yl)ethyl]pyridin-2-yl}vinyl]-1H-indazol-6-yl}thio)benzamide] | 10 to 100 nM | > 60000 nM

Results, then the compound that gave them:

IC50 (KDR (VEGFR2)) | IC50 (EGFR) | Structure (SMILES)
≤ 1 nM | 6000 to 60000 nM | O=C(NC1CC1)c1cc(F)ccc1Sc1ccc2c(/C=C/c3cnn(CCCN4CCCC4)c3)n[nH]c2c1 [Compound I-46, N-cyclopropyl-5-fluoro-2-({3-[(E)-2-{1-[3-(pyrrolidin-1-yl)propyl]-1H-pyrazol-4-yl}vinyl]-1H-indazol-6-yl}thio)benzamide]
1 to 10 nM | 600 to 6000 nM | O=C(NC1CC1)c1ccccc1Sc1ccc2c(/C=C/c3ccn(CCN4CCCC4)n3)n[nH]c2c1 [Compound I-60, N-cyclopropyl-2-({3-[(E)-2-{1-[2-(pyrrolidin-1-yl)ethyl]-1H-pyrazol-3-yl}vinyl]-1H-indazol-6-yl}thio)benzamide]
10 to 100 nM | 6000 to 60000 nM | O=C(NC1CC1)c1ccccc1Oc1ccc2c(/C=C/c3ccc(CN4CCCC4)cn3)n[nH]c2c1 [Compound I-81, N-cyclopropyl-2-({3-[(E)-2-{5-[(pyrrolidin-1-yl)methyl]pyridin-2-yl}vinyl]-1H-indazol-6-yl}oxy)benzamide]
> 100 nM | > 60000 nM | CCNC(=O)c1ccc(Sc2ccc3c(/C=C/c4ccc(CN(CC)CC)cn4)n[nH]c3c2)cc1F [Compound I-87, 4-({3-[(E)-2-{5-[(diethylamino)methyl]pyridin-2-yl}vinyl]-1H-indazol-6-yl}thio)-N-ethyl-2-fluorobenzamide]
1 to 10 nM | 6000 to 60000 nM | CNC(=O)c1cc(F)ccc1Sc1ccc2c(/C=C/c3ccc(CN4CCCC4)cn3)n[nH]c2c1 [Compound I-95, 5-fluoro-N-methyl-2-({3-[(E)-2-{5-[(pyrrolidin-1-yl)methyl]pyridin-2-yl}vinyl]-1H-indazol-6-yl}thio)benzamide]
10 to 100 nM | 6000 to 60000 nM | CCNC(=O)c1cccc(F)c1Sc1ccc2c(/C=C/c3cnn(CCCN4CCCC4)c3)n[nH]c2c1 [Compound I-102]
≤ 1 nM | 6000 to 60000 nM | CCN(CC)CCc1ccc(/C=C/c2n[nH]c3cc(Sc4cc(F)ccc4C(=O)NC4CC4)ccc23)nc1 [Compound I-108, N-cyclopropyl-2-({3-[(E)-2-{5-[2-(diethylamino)ethyl]pyridin-2-yl}vinyl]-1H-indazol-6-yl}thio)-4-fluorobenzamide]
1 to 10 nM | 6000 to 60000 nM | CCNC(=O)c1cccc(F)c1Sc1ccc2c(/C=C/c3ccc(CN(CC)CC)cn3)n[nH]c2c1 [Compound I-111, 2-({3-[(E)-2-{5-[(diethylamino)methyl]pyridin-2-yl}vinyl]-1H-indazol-6-yl}thio)-N-ethyl-3-fluorobenzamide]
> 100 nM | > 60000 nM | CCNC(=O)c1cccc(F)c1Sc1ccc2c(/C=C/c3cc(CN4CCCC4)ccn3)n[nH]c2c1 [Compound I-114, N-ethyl-3-fluoro-2-({3-[(E)-2-{4-[(pyrrolidin-1-yl)methyl]pyridin-2-yl}vinyl]-1H-indazol-6-yl}thio)benzamide]
1 to 10 nM | > 60000 nM | CCNC(=O)c1cc(F)ccc1Sc1ccc2c(/C=C/c3cc(CCCN4CCCC4)ccn3)n[nH]c2c1 [Compound I-122, N-ethyl-5-fluoro-2-({3-[(E)-2-{4-[3-(pyrrolidin-1-yl)propyl]pyridin-2-yl}vinyl]-1H-indazol-6-yl}thio)benzamide]
10 to 100 nM | > 60000 nM | O=C(NC1CC1)c1cccc(F)c1Sc1ccc2c(/C=C/c3cc(CCCN4CCCC4)ccn3)n[nH]c2c1 [Compound I-123]
1 to 10 nM | > 60000 nM | O=C(NC1CC1)c1ccccc1Sc1ccc2c(/C=C/c3cc(CCN4CCCC4)ccn3)n[nH]c2c1 [Compound I-133, N-cyclopropyl-2-({3-[(E)-2-{4-[2-(pyrrolidin-1-yl)ethyl]pyridin-2-yl}vinyl]-1H-indazol-6-yl}thio)benzamide]
1 to 10 nM | > 60000 nM | O=C(NC1CC1)c1cc(F)ccc1Sc1ccc2c(/C=C/c3cccc(CCN4CCCC4)n3)n[nH]c2c1 [Compound I-136, N-cyclopropyl-5-fluoro-2-({3-[(E)-2-{6-[2-(pyrrolidin-1-yl)ethyl]pyridin-2-yl}vinyl]-1H-indazol-6-yl}thio)benzamide]
